Laboratory results: paper PMC4055585, “Pharmacokinetics of Anti-HBV Polyoxometalate in Rats” (PLoS ONE, 2014)
Where “and” joins values, the source holds several entries; their conditions need not be identical. Identical values can stand only once. Like-named read-outs stand apart in the source and are kept apart here.

Assays:
[1] = test system: hepatitis B virus; design: method as in PMID 22264474; conditions: cited from earlier work
[2] = rat, in vivo; for AUC0–96 (area under the curve up to 96 h) / AUC0–∞ (area under the total concentration-time curve) / CL (systemic clearance) / Cmax (maximum concentration) / MRT (mean residence time) / Tmax (time of peak concentration) / Vd (steady-state volume of distribution) / ke (elimination rate constant) / t1/2 (half-life): po
[3] = Tissue distribution after oral administration; type: in vivo, Wistar rats; conditions: oral 180 mg/kg
Experimental: Five rats for each duration, 2, 24, 48 and 96 h post-dose, were sacrificed by decapitation after administration of Compound 1. The whole brain, heart, liver, spleen, lung, kidney, uterus, testis, ovary, epididymis, stomach, intestine, pancreas, thymus, fat, and skeletal muscle were rapidly dissected and harvested. All tissues and organs were weighed on an analytical balance and frozen at −20°C until analysis.
The tissue samples (except for fat and pancreas) were aliquots into 0.1 g and dipped in 3 mL concentrated HNO3 in test tubes.
(§1) Feces, fat and pancreas samples were aliquots into 0.1 g and dipped in 1 mL concentrated H2SO4 in test tubes. […] 3 mL concentrated HNO3was added at 120°C for 12 h until thorough dissolution.
(§2) Concentrations of Compound 1 were determined by atomic spectrometry. Samples were analyzed directly by ICP-MS. Polyoxometalate concentrations were estimated directly from measured tungsten concentrations.

[4] = rat, in vivo, iv, 180 mg/kg
[5] = Bile excretion after oral administration (bile duct cannulation); type: in vivo, Rats; conditions: oral 180 mg/kg, % of the drug tested
Experimental: Bile excretion: Rats (n = 6, male and female in equal) were anesthetized with diethyl ether, and bile duct were cannulated with a polyethylene tube. After recovery from anesthesia, rates were orally administered Compound 1 at a dose of 180 mg/kg BW. The bile samples were collected during 0–1, 1–2, 2–4, 4–8, 8–12, 12–24 and 24–48 h by bile duct cannulation. The bile volume was measured, and samples were frozen at −20°C until analysis.
(§3) The urine, bile, postdialysis serum and buffer samples were aliquots into 0.1 mL, treated in the same way as plasma samples.
as §2

[6] = test system: rat plasma protein; test: Plasma protein binding by equilibrium dialysis; type: in vitro ADME; conditions: for Protein binding rate, Mean: six parallel samples
Experimental: Various amounts of Compound 1 were added to pooled male rat serum to yield concentrations of 9, 18 and 36 mg/mL. The dialysis membrane was Spectrapor II (Beijing Dingguo Changsheng Biotechnology Co. Ltd, China) with a molecular weight cutoff of 12,000 to 14,000. […] Dialyzed serum and buffer volumes were collected and frozen at −20°C until analysis, and binding data were corrected for fluid shifts that occurred during dialysis. Experiments were done in six parallel samples. The following formula was used to calculate plasma protein binding rate of Compound 1 under different concentrations: [drawing 1]
Cplasma: concentration of Compound 1;
Cbuffer: concentration of Compound 1 in buffer
as §3

[7] = Urine and feces excretion after oral administration; type: in vivo, Wistar rats; conditions: oral 180 mg/kg
Experimental: Rats were placed in metabolism cages during the experiment to facilitate urine and feces collection. Urine and feces were collected during 0–1 h, 1–2, 2–4, 4–8, 8–12, 12–24, 24–48 and […]. Urine volume and feces weight were measured, and samples were frozen at −20°C until analysis.
as §3, §1, §2

[8] = design: method as in earlier work; conditions: cited from earlier work

**Q.** What does the source list for Cs2K4Na[SiW9Nb3O40].H2O [Compound 1]?
**A.** secretion of HBV antigens and HBV DNA ([1]; HepG2.2.15 cells): effectively suppressed; activity against HBV ([1]; HepG 2.2.15): high activity against HBV; toxicity ([1]; HepG 2.2.15): low toxicity; Tmax range [2]: 6 to 180 min; half-life range [2]: 20 to 30 h; absolute bioavailability ([2]; 180 mg/kg): 14.67%; AUC0–96 (area under the curve up to 96 h) ([2]; 45 mg/kg): 150.9 ± 87.15 µg·h/mL; AUC0–∞ (area under the total concentration-time curve) ([2]; 45 mg/kg): 165.1 ± 94.98 µg·h/mL; CL (systemic clearance) ([2]; 45 mg/kg): 86.96 ± 42.45 mL/h; Cmax (maximum concentration) ([2]; 45 mg/kg): 11130 ± 8370 ng/mL; MRT (mean residence time) ([2]; 45 mg/kg): 36.45±4.495 H; Tmax (time of peak concentration) ([2]; 45 mg/kg): 2.000±0.632 H; Vd (steady-state volume of distribution) ([2]; 45 mg/kg): 3437 ± 1593 mL; ke (elimination rate constant) ([2]; 45 mg/kg): 0.025 ± 0.002 h⁻¹; t1/2 (half-life) ([2]; 45 mg/kg): 27.91±2.606 H; AUC0–96 (area under the curve up to 96 h) ([2]; 180 mg/kg): 373.9 ± 112.7 µg·h/mL; AUC0–∞ (area under the total concentration-time curve) ([2]; 180 mg/kg): 410.1 ± 128.5 µg·h/mL; CL (systemic clearance) ([2]; 180 mg/kg): 117.1 ± 29.49 mL/h; Cmax (maximum concentration) ([2]; 180 mg/kg): 30850 ± 14250 ng/mL; MRT (mean residence time) ([2]; 180 mg/kg): 35.42±5.940 H; Tmax (time of peak concentration) ([2]; 180 mg/kg): 1.833±0.753 H; Vd (steady-state volume of distribution) ([2]; 180 mg/kg): 4620 ± 829.9 mL; ke (elimination rate constant) ([2]; 180 mg/kg): 0.025 ± 0.003 h⁻¹; t1/2 (half-life) ([2]; 180 mg/kg): 27.88±3.221 H; AUC0–96 (area under the curve up to 96 h) ([2]; 720 mg/kg): 1216 ± 402.2 µg·h/mL; AUC0–∞ (area under the total concentration-time curve) ([2]; 720 mg/kg): 1316 ± 449.7 µg·h/mL; CL (systemic clearance) ([2]; 720 mg/kg): 153.7 ± 62.35 mL/h; Cmax (maximum concentration) ([2]; 720 mg/kg): 49290 ± 9939 ng/mL; MRT (mean residence time) ([2]; 720 mg/kg): 37.57±4.676 H; Tmax (time of peak concentration) ([2]; 720 mg/kg): 2.167±0.753 H; Vd (steady-state volume of distribution) ([2]; 720 mg/kg): 5583 ± 2416 mL; ke (elimination rate constant) ([2]; 720 mg/kg): 0.028 ± 0.003 h⁻¹; t1/2 (half-life) ([2]; 720 mg/kg): 24.92±2.178 H; content in kidney and liver relative to the other tissues [3]: 10–70 times; deposition in the brain [3]: Less deposition; tissue with highest deposition ([3]; 16 tissues): kidney, followed by the stomach, intestine and liver; content in tissues at 96 h relative to peak content ([3]; 96 h): less than 10%; AUC0–96 (area under the curve up to 96 h) [4]: 2549 ± 327.3 µg·h/mL; AUC0–∞ (area under the total concentration-time curve) [4]: 2965 ± 342.8 µg·h/mL; CL (systemic clearance) [4]: 15.34 ± 1.695 mL/h; Cmax (maximum concentration) [4]: 235400 ± 66910 ng/mL; MRT (mean residence time) [4]: 47.05 ± 3.529 h; Tmax (time of peak concentration) [4]: 8.34 ± 5.16 min; Vd (steady-state volume of distribution) [4]: 679.7 ± 114.7 mL; compartment model fitted by the pharmacokinetic behavior [4]: two compartment model; ke (elimination rate constant) [4]: 0.023 ± 0.004 h⁻¹; t1/2 (half-life) [4]: 30.76 ± 4.658 h; accumulative excretion rate, bile [5]: about 0.42%; extent of binding to rat plasma protein ([6]; 36 mg/ml): moderately bound; extent of binding to rat plasma protein ([6]; 9–18 mg/ml): highly bound; Protein binding rate (single samples) ([6]; added concentration 9 mg/mL, rat serum, dialysis 48 h, 37°C, pH 7.4): 47.79% and 54.71% and 73.72% and 62.68% and 67.76% and 66.13%; Protein binding rate, Mean ([6]; added concentration 9 mg/mL, dialysis 48 h): 62.13%; Protein binding rate, Mean ([6]; added concentration 18 mg/mL, dialysis 48 h): 71.20%; Protein binding rate, Mean ([6]; added concentration 36 mg/mL, dialysis 48 h): 49.00%; total excreted, % of the total amount administered ([7]; till 48 h): about 30.84%; total excreted, % of the total amount administered ([7]; till 72 h): about 31.1%; reproductive toxicity [8]: no obvious reproductive toxicity
